# In US7247628B2, “Cannabinoid receptor ligands and uses thereof” (Pfizer, Inc., priority 2002, dated 2007):
# Target: T1, CB-1 receptor (Homo sapiens, UniProt P21554)
# T1 construct: expressed in transfected cells; host or cells: HEK 293 cells (membrane preparation); cDNA obtained from Dr. Debra Kendall, University of Connecticut
# Assay: Human CB-1 receptor binding ([3H]SR141716A displacement)
# Settings: CB-1 receptor binding assay, inhibition of [3H] SR141716A binding
# Experimental: Human embryonic kidney 293 (HEK 293) cells transfected with the CB-1 receptor cDNA (obtained from Dr. Debra Kendall, University of Connecticut) were harvested in homogenization buffer (10 mM EDTA, 10 mM EGTA, 10 mM Na Bicarbonate, protease inhibitors; pH=7.4), and homogenized with a Dounce Homogenizer. The homogenate was then spun at 1,000×g for 5 minutes at 4° C. The supernatant was recovered and centrifuged at 25,000×G for 20 minutes at 4° C. The pellet was then re-suspended in 10 ml of homogenization buffer and re-spun at 25,000×G for 20 minutes at 4° C. The final pellet was re-suspended in 1 ml of TME (25 mM Tris buffer (pH=7.4) containing 5 mM MgCl2 and 1 mM EDTA). A protein assay was performed and 200 μl of tissue totaling 20 μg was added to the assay.
# The test compounds were diluted in drug buffer (0.5% BSA, 10% DMSO and TME) and then 25 μl were added to a deep well polypropylene plate. [^3H] SR141716A was diluted in a ligand buffer (0.5% BSA plus TME) and 25 μl were added to the plate. The plates were covered and placed in an incubator at 30° C. for 60 minutes. At the end of the incubation period 250 μl of stop buffer (5% BSA plus TME) was added to the reaction plate. […] In the morning the filters were counted on a Wallac Betaplate™ counter (available from PerkinElmer Life Sciences™, Boston, Mass.).
# T1 sequence (P21554 whole entry): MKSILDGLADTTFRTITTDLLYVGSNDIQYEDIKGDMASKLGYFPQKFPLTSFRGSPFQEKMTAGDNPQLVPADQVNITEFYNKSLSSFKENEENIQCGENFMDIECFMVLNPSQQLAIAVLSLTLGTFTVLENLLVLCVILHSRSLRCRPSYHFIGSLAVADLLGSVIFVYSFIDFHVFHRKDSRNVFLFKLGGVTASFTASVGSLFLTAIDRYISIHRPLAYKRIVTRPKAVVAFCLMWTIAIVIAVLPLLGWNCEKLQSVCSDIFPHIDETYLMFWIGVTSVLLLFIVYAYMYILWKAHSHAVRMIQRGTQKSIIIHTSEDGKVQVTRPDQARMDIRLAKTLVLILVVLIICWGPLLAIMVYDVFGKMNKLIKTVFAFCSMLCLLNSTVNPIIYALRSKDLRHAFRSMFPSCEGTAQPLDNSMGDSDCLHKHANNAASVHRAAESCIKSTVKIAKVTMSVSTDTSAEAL
compound,measurement,value
"Cc1cccc(CN2CCOC(c3nn(-c4ccccc4Cl)c(-c4ccc(Cl)cc4)c3C)C2)n1 (stereo not shown) [Example 5A-6, 2-[1-(2-Chlorophenyl)-5-(4-chlorophenyl)-4-methyl-1H-pyrazol-3-yl]-4-(6-methyl-pyridin-2-ylmethyl)-morpholine]",binding affinity,79 nM
